System: pain
Test: Comparison of skin patches formulated with type A versus type B crystalline CBD
Assay type: in vivo
Text: The “potency” and/or “activity” of “type A” CBD can e.g. be determined by comparing the effect using essentially identical compositions with the exception of the type and/or quantity of CBD used. Said potency, activity and or effect can e.g. be determined essentially as disclosed in the Examples by replacing the placebo with the “B-type” CBD comprising formulation. Alternatively, the potency can be determined in the quantity of CBD needed to provide the same effect, such as pain relief.
Two different sets of skin patches are provided according to Example 1, e.g. formulation A or F, the only difference being that the crystalline CBD used in the formulation is either of type A (needle-like crystals; FIG. 9) or type B (bunch/cluster-like; FIG. 10).
Type A crystalline CBD is sourced from Enecta, while type B CBD is sourced from Pharma Hemp.
Such tests can e.g. be performed, mutatis mutandis, according to Examples 1-4.

## C=C(C)[C@@H]1CCC(C)=C[C@H]1c1c(O)cc(CCCCC)cc1O [type A CBD, Cannabidiol]
Observed by the inventors, see Example 6
  Potency of CBD with needle-like crystal structure compared with CBD of crystal structure B: significantly more potent
Skin patches according to Example 1, e.g. formulation A or F, only the crystalline CBD differs
  Activity of skin patch with type A CBD compared with comparable skin patch with type B CBD: significantly more active
